One series addresses hENPP1 enzyme (Homo sapiens (Human), UniProt P22413). Briefly: ENPP1 enzymatic inhibition in biochemical assay (TMP-pNP hydrolysis, OD405). The settings on record: ENPP1 enzymatic inhibition activity, TMP-pNP substrate, pH 9.5. The source says:
ENPP1 was a transmembrane glycoprotein capable of hydrolyzing nucleotides and derivatives with a nucleotide-5′-monophosphate structure. ENPP1 was capable of hydrolyzing artificial thymidine 5′-monophosphate p-nitrophenyl ester (TMP-pNP) into nucleotide 5′-monophosphate and p-nitrophenol which was a chromogenic product. The formation amount of p-nitrophenol product could be directly measured by its absorbance at 405 nm, which was directly proportional to the enzyme activity.
The compound was dissolved in DMSO, with stock concentration of 1 mM, and diluted in a 4-fold serial gradient to make 10 concentration points. Echo was used to transfer 300 nL of gradient concentrations of compound to a 384-well assay plate (final concentration: starting at 10 μM, 4-fold serial gradient dilution, 10 concentration points). First, 15 μL of 0.2 ng/uL hENPP1 enzyme (2× final concentration) prepared in assay buffer (250 mM NaCl, 50 mM Tris, pH=9.5) was added to each well. Then, 15 μL of 400 μM TMP-pNP (2× final concentration) diluted in assay buffer was added. After incubating at 37° C. for 0.5 hrs, the OD405 nm value was read by the microplate reader. The percentage inhibition was calculated using the formula: % Inhibition Rate=(ODhigh signal control−ODsample well)/(ODhigh signal control−ODlow signal control)*100. The IC50 value was calculated using four-parameter fit. The high signal control was the DMSO group without inhibitors, and the low signal control was the blank control group.

A short description of series [1]: Pharmacokinetics in mice, compound concentration by LC-MS/MS. The settings on record: male, CD-1, mouse, plasma; for bioavailability: 10 mpk vs IV; for AUC(0-t): read-out: AUC0-24 h; for Vd: read-out: VSS; for Cmax: read-out: Cmax; for Tmax: read-out: Tmax. The format is in vivo, CD-1 male mice.
Series [2] deals with ENPP1 in cultured MDA-MB-231 cells (Homo sapiens (Human), UniProt P22413). Briefly: ENPP1 enzymatic inhibition in cellular assay (MDA-MB-231 cells, TMP-pNP). It is filed as cell-based. To be noted: ENPP1 enzymatic inhibition activity at the cellular level. How it is done: ENPP1 was mainly expressed on the surface of cell membranes and could hydrolyze 2′3′-cGAMP into 5′-GMP and 5′-AMP. Similarly, ENPP1 could also hydrolyze the synthetic phosphate TMP-pNP, generating nucleotide-5′-monophosphate and the chromogenic product p-nitrophenol. Therefore, TMP-pNP was used as a substrate to reflect the enzyme activity of ENPP1 in cultured MDA-MB-231 cells. The amount of p-nitrophenol formed in the culture medium was determined by absorbance at 405 nim, which was directly proportional to the activity of ENPP1.
MDA-MB-231 cells was seeded with a density of 6000 per well in 384-well plate and cultured overnight (about 18 hrs) at 37° C. The compound was diluted into a 50× serial gradient dilution using an assay buffer (250 mM NaCl, 50 mM Tris, pH=9.5), starting at 500 μM, and diluted in a 4-fold serial gradient to make 10 concentration points. The cell culture medium was removed, and 10 μL of gradient concentrations of compounds were added to each well of the 384-well assay plate (final concentration: starting at 10 μM, 4-fold serial gradient dilution, with 10 concentration points). Then, 10 μL of 1 mM TMP-pNP (2× final concentration) dissolved in the assay buffer was added to the well. After incubating at 37° C. for 3 hrs, the OD405 nm value was read by the microplate reader. The percentage inhibition was calculated using the formula: % Inhibition Rate=(ODhigh signal control−ODsample well)/(ODhigh signal control−ODlow signal control)*100. The IC50 value was calculated using four-parameter fit. The high signal control was the DMSO group without inhibitors, and the low signal control was the blank control group.

We go through 23 compounds from patent US20250115609A1, “AROMATIC HETEROCYCLIC COMPOUNDS, PREPARATION METHOD THEREFOR AND USES THEREOF” (Innovstone Therapeutics Limited, priority 2021, published 2025).

pEC50, pIC50: −log10 of the molar value. Where two headings read alike, the source gives them in different places.

Chain of ENPP1 in cultured MDA-MB-231 cells (P22413 whole entry): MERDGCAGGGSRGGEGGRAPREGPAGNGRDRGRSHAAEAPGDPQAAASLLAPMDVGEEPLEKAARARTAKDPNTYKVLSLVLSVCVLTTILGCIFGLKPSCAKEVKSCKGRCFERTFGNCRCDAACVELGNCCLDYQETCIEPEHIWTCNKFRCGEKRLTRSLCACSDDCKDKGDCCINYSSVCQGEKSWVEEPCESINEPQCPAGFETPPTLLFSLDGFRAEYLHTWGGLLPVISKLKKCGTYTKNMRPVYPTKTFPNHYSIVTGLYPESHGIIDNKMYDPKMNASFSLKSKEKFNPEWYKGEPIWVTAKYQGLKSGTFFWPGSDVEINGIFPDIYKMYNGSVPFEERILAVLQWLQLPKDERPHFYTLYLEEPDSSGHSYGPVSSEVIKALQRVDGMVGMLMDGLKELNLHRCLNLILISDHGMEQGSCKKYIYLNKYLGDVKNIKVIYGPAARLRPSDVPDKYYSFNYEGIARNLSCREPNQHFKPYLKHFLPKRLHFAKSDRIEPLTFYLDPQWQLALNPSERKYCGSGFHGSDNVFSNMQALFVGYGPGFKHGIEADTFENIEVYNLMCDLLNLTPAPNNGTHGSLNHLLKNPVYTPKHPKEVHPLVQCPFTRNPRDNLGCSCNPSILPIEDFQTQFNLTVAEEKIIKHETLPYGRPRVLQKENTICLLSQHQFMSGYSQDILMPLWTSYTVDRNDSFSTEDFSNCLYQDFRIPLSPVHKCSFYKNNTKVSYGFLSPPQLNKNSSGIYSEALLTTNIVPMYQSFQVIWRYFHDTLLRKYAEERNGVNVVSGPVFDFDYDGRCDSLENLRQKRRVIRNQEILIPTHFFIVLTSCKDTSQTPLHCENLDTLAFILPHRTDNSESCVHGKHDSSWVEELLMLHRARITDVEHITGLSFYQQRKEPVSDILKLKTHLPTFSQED
Chain of hENPP1 enzyme (P22413 whole entry): as above

Turning to `COc1ccc2c(ncc3ncc(=O)n(Cc4c(F)cc(S(N)(=O)=O)cc4F)c32)n1` [Compound 002, 3,5-difluoro-4-((8-methoxy-2-oxopyrazino[2,3-c][1,8]naphthyridin-1(2H)-yl)methyl)benzenesulfonamide], the pIC50 – broadly, the IC50 on a negative log10 scale, so that one unit is a factor of ten – against hENPP1 enzyme was 8.70 to 9.70.
Turning to `COc1ccc2c3c(cnc2n1)COC(=O)N3Cc1c(F)cc(S(N)(=O)=O)cc1F` [Compound 006, 3,5-difluoro-4-((8-methoxy-2-oxo-2H-[1,3]oxazino[5,4-c][1,8]naphthyridin-1(4H)-yl)methyl)benzenesulfonamide], the bioavailability (as a rule, the share of a dose that reaches the circulation, judged against a reference dose that is usually intravenous) in series [1] (10 mg/kg, PO, 2 mpk) was found to be 92.6%. Also, in series [2], the pEC50 (usually −log10 of the EC50, conventionally taken in molar units) is over 9.30. Further, on hENPP1 enzyme, the negative-log IC50 (pIC50) was 9.70 to 10.00.
In series [2], `COc1cc2ncc3c(c2cc1F)N(Cc1c(F)cc(S(N)(=O)=O)cc1F)C(=O)NC3` [Compound 007, 3,5-difluoro-4-((9-fluoro-8-methoxy-2-oxo-3,4-dihydropyrimido[5,4-c]quinolin-1(2H)-yl)methyl)benzenesulfonamide] gave a pEC50 of over 9.30. The pIC50 against hENPP1 enzyme is 9.70 to 10.00.
With `COc1ccc2c(ncc3ccc(=O)n(Cc4c(F)cc(S(N)(=O)=O)cc4F)c32)n1` [Compound 008, 3,5-difluoro-4-((8-methoxy-2-oxopyrido[2,3-h][1,6]naphthyridine-1(2H)-yl)methyl)benzenesulfonamide], in series [1] (2 mg/kg, IV, 2 mpk), the clearance (in general, a measure of how efficiently the substance is removed, as volume per time) is 4.78 mL/min/kg; the half-life (commonly the time in which the quantity being followed falls by half) was 4.56 h; the AUC(0-t) amounted to 7450 ng·h/mL; the Vd stood at 1.52 L/kg. In addition, in series [1] (10 mg/kg, PO, 10 mpk), the half-life is 3.87 h; the AUC(0-t) is 7340 ng·h/mL; the Cmax (as a rule, the maximum level reached in the sampled fluid or tissue) stood at 798 ng/mL; the Tmax (commonly the time from dosing to the highest level) is 3.17 h. Moreover, the bioavailability in series [1] (10 mg/kg, PO, 2 mpk) amounted to 20%. Also, in series [2], the pEC50 is over 9.30. The compound also showed a pIC50 on hENPP1 enzyme of 9.70 to 10.00.
At hENPP1 enzyme, `COc1ccc2c(ncc3c(=O)[nH]c(=O)n(Cc4c(F)cc(S(N)(=O)=O)cc4F)c32)n1` [Compound 017] showed a pIC50 of 8.70 to 9.70.
Still for that read-out and setting: as for `COc1ccc2c3c(cnc2c1)COC(=O)N3Cc1c(F)cc(S(N)(=O)=O)cc1F` [Compound 030, 3,5-difluoro-4-((8-methoxy-2-oxo-2H-[1,3]oxazino[5,4-c]quinolin-1(4H)-yl)methyl)benzenesulfonamide], the figure is 9.70 to 10.00.
Same read-out and setting: as for `COc1cc2ncc3c(c2cc1OC)N(Cc1c(F)cc(S(N)(=O)=O)cc1F)C(=O)OC3` [Compound 031, 4-((8,9-dimethoxy-2-oxo-2H-[1,3]oxazino[5,4-c]quinolin-1(4H)-yl)methyl)-3,5-difluorobenzenesulfonamide], the figure is 8.70 to 9.70.
With `COc1cc2ncc3c(c2cc1F)N(Cc1c(F)cc(S(N)(=O)=O)cc1F)C(=O)OC3` [Compound 048, 3,5-difluoro-4-((9-fluoro-8-methoxy-2-oxo-2H-[1,3]oxazino[5,4-c]quinolin-1(4H)-yl)methyl)benzenesulfonamide], in series [1] (2 mg/kg, IV, 2 mpk), the clearance is 1.92 mL/min/kg, the half-life was 3.07 h, the AUC(0-t) stood at 18300 ng·h/mL and the Vd amounted to 0.46 L/kg. In series [1] (10 mg/kg, PO, 10 mpk), the half-life was 2.79 h, the AUC(0-t) is 34800 ng·h/mL, the Cmax stood at 4870 ng/mL and the Tmax amounted to 0.583 h. In series [1] (10 mg/kg, PO, 2 mpk), this compound returned a bioavailability of 38.1%. In addition, the pEC50 in series [2] is over 9.30. For the same compound, the pIC50 on hENPP1 enzyme was over 10.00.
In the case of `COc1ccc2c3c(cnc2n1)NCC(=O)N3Cc1c(F)cc(S(N)(=O)=O)cc1F` [Compound 049, 3,5-difluoro-4-((8-methoxy-2-oxo-3,4-dihydropyrazino[2,3-c][1,8]naphthyridine-1(2H)-yl)methyl)benzenesulfonamide], on hENPP1 enzyme, the pIC50 was 8.70 to 9.70.
Still for that read-out and setting: under `COc1ccc2c3c(cnc2n1)N(C(=O)OC(C)(C)C)CCN3Cc1c(F)cc(S(N)(=O)=O)cc1F` [Compound 050, tert-butyl 1-(2,6-difluoro-4-sulfamoylbenzyl)-8-methoxy-2,3-dihydropyrazino[2,3-c][1,8]naphthyridine-4(1H)-carboxylate] stands 8.70 to 9.70; under `COc1ccc2c3c(cnc2n1)NCC(=O)N3Cc1c(F)cc(S(N)(=O)=O)cc1F` [Compound 051], 8.70 to 9.70.
For the compound `COc1ccc2c3c(cnc2n1)CCC(=O)N3Cc1c(F)cc(S(N)(=O)=O)cc1F` [Compound 054, 3,5-difluoro-4-((8-methoxy-2-oxo-3,4-dihydropyrido[2,3-h][1,6]naphthyridine-1(2H)-yl)methyl)benzenesulfonamide], in series [1] (2 mg/kg, IV, 2 mpk), the clearance is 4.1 mL/min/kg, the half-life is 3.51 h, the AUC(0-t) worked out at 8090 ng·h/mL and the Vd is 0.826 L/kg. Besides, in series [1] (10 mg/kg, PO, 10 mpk), the half-life is 3.39 h, the AUC(0-t) worked out at 20100 ng·h/mL, the Cmax was 7900 ng/mL and the Tmax turned out to be 0.5 h. In series [1] (10 mg/kg, PO, 2 mpk), the bioavailability was found to be 49.7%. Also, the pIC50 at hENPP1 enzyme was over 10.00.
Compound `COc1nc2ncc3c(c2cc1F)N(Cc1c(F)cc(S(N)(=O)=O)cc1F)C(=O)CN3` [Compound 055] gave a pIC50 at hENPP1 enzyme of 9.70 to 10.00.
`COc1ccc2c3c(cnc2n1)CN(CC(F)(F)F)C(=O)N3Cc1c(F)cc(S(N)(=O)=O)cc1F` [Compound 056] gave a pIC50 at hENPP1 enzyme of 9.70 to 10.00.
Take `COc1ccc2c(ncc3[nH]c(=O)c(=O)n(Cc4c(F)cc(S(N)(=O)=O)cc4F)c32)n1` [Compound 062, 3,5-difluoro-4-((8-methoxy-2,3-dioxo-3,4-dihydropyrazino[2,3-c][1,8]naphthyridine-1(2H)-yl)methyl)benzenesulfonamide]: the pEC50 in series [2] was over 9.30. The pIC50 against hENPP1 enzyme is over 10.00.
For `CCOc1ccc2c(ncc3ncc(=O)n(Cc4c(F)cc(S(N)(=O)=O)cc4F)c32)n1` [Compound 063], the pIC50 against hENPP1 enzyme was 8.70 to 9.70.
Still for that read-out and setting: under `COc1ccc2c3c(cnc2n1)NCCN3Cc1c(F)cc(S(N)(=O)=O)cc1F` [Compound 066, 3,5-difluoro-4-((8-methoxy-3,4-dihydropyrazino[2,3-c][1,8]naphthyridine-1(2H)-yl)methyl)benzenesulfonamide] stands 8.70 to 9.70; under `COc1ccc2c3c(cnc2n1)COC(=O)N3Cc1ccc(S(N)(=O)=O)cc1` [Compound 067, 4-((8-methoxy-2-oxo-2H-[1,3]oxazino[5,4-c][1,8]naphthyridin-1(4H)-yl)methyl)benzenesulfonamide], 8.70 to 9.70; under `COc1ccc2c3c(cnc2n1)COC(=O)N3Cc1ccc(S(N)(=O)=O)cn1` [Compound 070, 6-((8-methoxy-2-oxo-2H-[1,3]oxazino[5,4-c][1,8]naphthyridin-1(4H)-yl)methyl)pyridine-3-sulfonamide], 9.70 to 10.00.
The same measure, in the same setting: under `COc1ccc2c3c(cnc2n1)COC(=O)N3Cc1ccc(S(N)(=O)=O)cc1F` [Compound 071, 3-fluoro-4-((8-methoxy-2-oxo-2H-[1,3]oxazino[5,4-c][1,8]naphthyridin-1(4H)-yl)methyl)benzenesulfonamide] stands 9.70 to 10.00; under `COc1ccc2c3c(cnc2c1)N(C(=O)CO)CC(=O)N3Cc1c(F)cc(S(N)(=O)=O)cc1F` [Compound 072], 8.70 to 9.70.
Regarding `COc1ccc2c3c(cnc2n1)CN(C1CC1)C(=O)N3Cc1c(F)cc(S(N)(=O)=O)cc1F` [Compound 074], the pIC50 at hENPP1 enzyme is 9.70 to 10.00.
On the same count and under the same terms, as for `COc1cnc2c(c1)ncc1[nH]c(=O)c(=O)n(Cc3c(F)cc(S(N)(=O)=O)cc3F)c12` [Compound 076], the figure is 9.70 to 10.00.
